Several values for one entry are separate records, joined by “and”; a condition that tells them apart may be missing. Equal values may be shown once.
Legend:
[1] = system: WM266-4 melanoma cells; assay: Cell viability assay (MTS) after miRNA transfection, with or without drug; Bliss synergy analysis
Method: (§5) Cells were seeded in 96-well plates at a density of 2.5×10^3 cells per well and transfected with miRNA precursor molecules as above. Cell viability was measured 5 days after transfection using CellTitre 96 Aqueous One Solution Cell Proliferation Assay Kit (MTS assay) and a FLUOstar OPTIMA microplate reader. For synergy analysis between drugs and miR-7-5p, cells were plated as above and drug or DMSO was added 3 days after transfection with miR-7-5p or miR-NC for 4 days, at which time cell viability was measured (7 days after transfection).
(§6) Statistical significance was calculated using Student's t test (one-tailed, unpaired) and the level of significance was set at p<0.05. Drug sensitivity (IC50) was calculated using GraphPad Software (GraphPad Prism, version 5.04). The Bliss additivism model was used for synergy analysis. […] Here, Ebliss is the fractional inhibition expected if the combination of miR-7-5p and drug B was exactly additive. If the experimentally measured fractional inhibition is greater than Ebliss, the combination is synergistic.

[2] = system: FAK; assay: Immunoblotting after transfection of melanoma cells; format: cell-based; conditions: WM266-4 and A2058; 30 nM, protein harvested at time of migration assay (48 hours)
Method: (§1) Optimal cell numbers were transfected using Lipofectamine 2000 (Invitrogen) with miR-7-5p (SEQ ID NO: 1; synthesised by Ambion) or miR-NC precursor molecules (hereinafter “miR-NC”; Ambion AM17110) at final concentrations ranging from 1-30 nM. For siRNA transfections, Silencer Select siRNAs (Invitrogen) Negative Control No. 1 (si-NC; 4390843), si-IRS-2 #1 (s16486), si-IRS-2 #2 (s16487) were transfected using Lipofectamine 2000 (Invitrogen) according to the manufacturer's protocol. Cells were harvested 24 hours later for RNA or 2-3 days after transfection for protein extraction.
(§2) Protein was harvested with Cytoplasmic Extract Buffer (CEB)-containing PhosSTOP phosphatase inhibitors (Roche; New South Wales, Australia) and Complete EDTA-free protease inhibitors (Roche). Cell lysates were frozen at −80° C. overnight, cleared by centrifugation at 13,000×g for 5 min, and supernatants collected. Total protein concentrations were determined by Bio-Rad protein assay (Bio-Rad; New South Wales, Australia) as per manufacturer's instructions and using a FLUOstar OPTIMA microplate reader.
(§3) Fifteen μg of total protein samples were resolved on NuPAGE NO VEX 4-12% Bis-Tris gels (Invitrogen) and transferred to polyvinylidene fluoride (PVDF) western blotting membranes (Roche). The blots were blocked for 1 hour with Odyssey Blocking Buffer (Millennium Science, Victoria, Australia) and incubated overnight at 4° C. with anti-IGF1R, anti-phospho-IGF1R, anti-IRS-1, anti-IRS-2, anti-phospo-IRS-2, anti-ERK 1/2, anti-phospho-ERK 1/2, anti-Akt, anti-phospho-Akt (Ser-473), anti-PAK1 (all from Cell Signaling Technology, Beverly, Mass.), or anti-FAK (Santa Cruz Biotechnology), anti-phospho-IRS-2 (Ser-731; Abeam, Cambridge, Mass.), or anti-β-actin (Abcam), followed by incubation with infrared-conjugated secondary antibodies for 1 hour at room temperature. The membranes were scanned with an Odyssey SA scanner to visualize protein expression (LICOR Biosciences, Lincoln, Nebr.).

[3] = system: P-IGF1R; assay: as above; format: cell-based; conditions: 15 nM, 3 days post-transfection
Method: as §1, §2, §3

[4] = system: P-IRS-2; assay: as above; format: cell-based
Method: as §1, §2, §3

[5] = system: IGF1R; assay: as above; format: cell-based; conditions: melanoma cell lines; 15 nM, 3 days post-transfection, vs miR-NC
Method: as §1, §2, §3

[6] = system: P-ERK 1/2; assay: as above; format: cell-based; conditions: A2058; 15 nM, 3 days post-transfection
Method: as §1, §2, §3

[7] = system: PAK1; assay: as above; format: cell-based
Method: as §1, §2, §3

[8] = system: P-Akt; assay: as above; format: cell-based; conditions: SK-MEL-28, WM266-4 and MM96L; 15 nM, 3 days post-transfection
Method: as §1, §2, §3

[9] = system: IRS-1; assay: as above; format: cell-based; conditions: 15 nM, 3 days post-transfection
Method: as §1, §2, §3

[10] = system: IRS-2; assay: as above; format: cell-based
Method: as §1, §2, §3

[11] = system: IRS-2 mRNA; assay: RT-qPCR of IRS-2 mRNA after transfection; format: cell-based; conditions: WM266-4 and A2058; 24 hours after transfection, normalised to GAPDH, vs miR-NC
Method: as §1

[12] = system: 1205Lu melanoma cells; assay: xCELLigence real-time cell invasion assay (Matrigel); format: cell-based; conditions: further study, 20-25 hour period
Text: (§4) Cell migration and invasion was monitored with a Real-Time Cell Analyser dual-plate (RTCA DP) xCELLigence System (Roche Applied Science; Mannheim, Germany). This instrument employs cellular migration plates (CIM-plate 16) which contain microelectronic sensors on the underside of an 8 μm microporous polyethylene terephthalate (PET) membrane of a Boyden-like upper chamber and a lower chamber containing media or chemoattractant. As cells migrate or invade from the upper chamber to the lower chamber they interact with the sensors causing an increase in electrical impedance. Changes in cell impedance over time relates to a change in the number of cells interacting with the sensors, allowing real-time measurement of cell migration as a cell index value. […] After 48 h incubation cells were trypsinised, resuspended in serum free media and seeded into the upper chamber of CIM-plates. The lower chambers were filled with media containing 10% FBS (chemoattractant) or serum free media as a control. Migration was monitored over a 24 hour period with impedance measurements every 15 min. For invasion assays, the CIM-plates were coated with Matrigel (BD Biosciences; diluted at a ratio of 1:20 in serum free medium) approximately 4 hours prior to seeding cells.

[13] = system: A2058 melanoma cells; assay: as above; format: cell-based; conditions: further study, 20-25 hour period
Text: as §4

[14] = system: A375 melanoma cells; assay: as above; format: cell-based; conditions: further study, 20-25 hour period
Text: as §4

[15] = system: WM266-4 melanoma cells; assay: as above; format: cell-based; conditions: further study, 20-25 hour period
Text: as §4

[16] = system: SK-MEL-28 melanoma cells; assay: Cell viability assay (MTS) after miRNA transfection, with or without drug; Bliss synergy analysis; conditions: for EObs/EBliss: >1 = synergistic; for EBliss: fractional inhibition expected if exactly additive; for EObs: observed fractional inhibition of the combination
Method: as §5, §6

[17] = system: A2058 melanoma cells; assay: as above; conditions: for EObs/EBliss: >1 = synergistic; for EBliss: fractional inhibition expected if exactly additive; for EObs: observed fractional inhibition of the combination; for cell viability, combination of miR-7-5p and drug compared to miR-NC: miR-7-5p 5 nM, suboptimal dose of drug (below the IC50) added 3 days post-transfection, 4 further days; for synergy of combination with miR-7-5p (Bliss additivism model): observed fractional inhibition greater than calculated additive inhibition
Method: as §5, §6

[18] = system: 1205Lu melanoma cells; assay: xCELLigence real-time cell migration assay; format: cell-based; conditions: further study, 20-25 hour period
Text: as §4

[19] = system: A2058 melanoma cells; assay: xCELLigence real-time cell migration assay; format: cell-based
Text: as §4

[20] = system: A375 melanoma cells; assay: xCELLigence real-time cell migration assay; format: cell-based; conditions: further study, 20-25 hour period
Text: as §4

[21] = system: WM266-4 melanoma cells; assay: xCELLigence real-time cell migration assay; format: cell-based
Text: as §4

[22] = system: melanoma cell lines; assay: Cell viability assay (MTS) after miRNA transfection; format: cell-based; conditions: melanoma cells
Method: Cells were seeded in 96-well plates at a density of 2.5×10^3 cells per well and transfected with miRNA precursor molecules as above. Cell viability was measured 5 days after transfection using CellTitre 96 Aqueous One Solution Cell Proliferation Assay Kit (MTS assay) and a FLUOstar OPTIMA microplate reader.

[23] = system: MM96L melanoma cells; assay: Cell viability assay (MTS) after miRNA transfection, with or without drug; Bliss synergy analysis
Method: as §5, §6

[24] = system: melanoma cell lines (SK-MEL-28, WM266-4, MM96L and A2058); assay: Drug sensitivity assay (cell viability after 4 days of drug); format: cell-based; conditions: range over the melanoma cell lines
[25] = system: ERK 1/2; assay: IGF-1-induced activation of ERK 1/2 signaling under NVP-AEW541 (data not shown); format: cell-based
[26] = system: breast cancer cell line MCF-7; assay: Drug sensitivity assay (cell viability after 4 days of drug); format: cell-based; conditions: MCF-7 (positive control)
[27] = system: Akt; assay: IGF-1-induced activation of Akt signaling under NVP-AEW541 (data not shown); format: cell-based
[28] = WM266-4 and A2058, 72 hours after transfection, vs miR-NC
[29] = WM266-4 and A2058, 30 nM, protein harvested at time of migration assay (48 hours)
[30] = MTS assay 5 days post-transfection
[31] = further study, 20-25 hour period
[32] = [miR-7-5p] 5 nM + [drug] 100 nM
[33] = [miR-7-5p] 5 nM + [drug] 5 μM, >1 = synergistic
[34] = [miR-7-5p] 5 nM + [drug] 5 μM, fractional inhibition expected if exactly additive
[35] = [miR-7-5p] 5 nM + [drug] 5 μM, observed fractional inhibition of the combination

miR-7-5p: Synthetic miRNA precursor molecules corresponding to human miR-7-5p (Ambion, PM10047); SEQ ID NO: 1 (UGGAAGACUAGUGAUUUUGUUGU; synthetic precursor duplex form, further chemistry not given here; listed as Homo sapiens)
cell viability compared with miR-NC ([1]; MTS assay, data not shown): significantly reduced
FAK expression [2]: reduction
IGF1R phosphorylation ([3]; A2058): decreased
IGF1R phosphorylation ([3]; MM96L): increased
IGF1R phosphorylation ([3]; SK-MEL-28): did not change
IRS-2 phosphorylation ([4]; SK-MEL-28, 15 nM, 3 days post-transfection): reduced
active form of IRS-2 (P-IRS-2) [4, 28]: reduced
IGF1R expression [5]: No change
P-ERK 1/2 [6]: downregulated
protein level of PAK1 ([7]; SK-MEL-28, WM266-4, MM96L and A2058, 15 nM, 3 days post-transfection, vs miR-NC): reductions
PAK1 expression [7, 29]: reduction
P-Akt [8]: downregulated
IRS-1 expression ([9]; A2058): decrease
IRS-1 expression ([9]; SK-MEL-28 and WM266-4): modest increase
IRS-2 expression ([10]; A2058, 15 nM, 3 days post-transfection): reduced
IRS-2 expression [10, 29]: reduction
expression of IRS-2 protein [10, 28]: reduced
levels of IRS-2 mRNA [11]: significantly decreased
rate of cell invasion compared with miR-NC [12]: significantly reduced, or even blocked
rate of cell invasion compared with miR-NC [13]: significantly reduced, or even blocked
rate of cell invasion compared with miR-NC [14]: significantly reduced, or even blocked
rate of cell invasion compared with miR-NC [15]: significantly reduced, or even blocked
cell viability compared with miR-NC ([16]; MTS assay, data not shown): significantly reduced
cell viability compared with miR-NC [17, 30]: significantly reduced
rate of cell migration compared with miR-NC [18]: significantly reduced, or even blocked
cell migration compared with miR-NC ([19]; 30 nM, seeded 48 hours after transfection, monitored 24 hours): significantly inhibited
rate of cell migration compared with miR-NC [19, 31]: significantly reduced, or even blocked
rate of cell migration compared with miR-NC [20]: significantly reduced, or even blocked
cell migration compared with miR-NC ([21]; 30 nM, seeded 48 hours after transfection, monitored 24 hours, data not shown): significantly inhibited
rate of cell migration compared with miR-NC [21, 31]: significantly reduced, or even blocked
final miR-7-5p concentration at which viability was significantly reduced [22]: 1 nM
cell viability compared with miR-NC [23, 30]: significantly reduced

COc1cc([C@@H]2c3cc4c(cc3[C@H](O)[C@H]3COC(=O)[C@@H]23)OCO4)cc(OC)c1OC [PPP, picropodophyllin]
EObs/EBliss [16, 32]: 1.80 and 1.30
EBliss [16, 32]: 0.292 and 0.391
EObs [16, 32]: 0.526 and 0.508
EObs/EBliss [17, 32]: 1.48 and 1.03 and 1.18
EBliss [17, 32]: 0.447 and 0.684 and 0.420
EObs [17, 32]: 0.663 and 0.704 and 0.496
cell viability, combination of miR-7-5p and drug compared to miR-NC [17]: significant reduction
synergy of combination with miR-7-5p (Bliss additivism model) [17]: synergistic
IC50 ([24]; 96 h): 0.15 to 0.3 µM

Nc1ncnc2c1c(-c1cccc(OCc3ccccc3)c1)cn2C1CC(CN2CCC2)C1 (stereo not shown) [NVP-AEW541]
IGF-1-induced activation of ERK 1/2 signaling pathway ([25]; MCF-7 breast cancer cells): attenuated
ERK 1/2 activity (IGF-1-induced) ([25]; melanoma cell lines): persistence of ERK 1/2 activity
EObs/EBliss [1, 33]: 1.06
EBliss [1, 34]: 0.715
EObs [1, 35]: 0.757
IC50 [26]: 1500 nM
EObs/EBliss ([16]; [miR-7-5p] 5 nM + [drug] 5 μM): 1.24 and 1.17
EBliss ([16]; [miR-7-5p] 5 nM + [drug] 5 μM): 0.474 and 0.265
EObs ([16]; [miR-7-5p] 5 nM + [drug] 5 μM): 0.588 and 0.309
IGF-1-induced activation of Akt signaling pathway ([27]; MCF-7 breast cancer cells): attenuated
Akt activity (IGF-1-induced) ([27]; melanoma cell lines): abrogated
EObs/EBliss ([17]; [miR-7-5p] 5 nM + [drug] 5 μM): 1.10 and 1.20
EBliss ([17]; [miR-7-5p] 5 nM + [drug] 5 μM): 0.769 and 0.720
EObs ([17]; [miR-7-5p] 5 nM + [drug] 5 μM): 0.846 and 0.866
cell viability, combination of miR-7-5p and drug compared to miR-NC [17]: significant reduction
synergy of combination with miR-7-5p (Bliss additivism model) [17]: synergistic
IC50 [24]: 8.27 to 25.1 µM
EObs/EBliss [23, 33]: 1.06
EBliss [23, 34]: 0.515
EObs [23, 35]: 0.547

From patent US9795626B2, “Cancer therapy using miRNAs” (THE UNIVERSITY OF WESTERN AUSTRALIA, priority 2012, dated 2017)
